Assay results reported in US20060052362A1, “Skeletal muscle protecting agent” (priority 2003, published 2006).
Where two headings read alike, the source gives them in different places.

Columns and labels:
[1] = test system: Human normal skeletal muscle cells; assay: Effect of Test compound 3 on cytotoxicity of HMG-CoA reductase inhibitor (1), drugs added at the same time; assay type: cell-based; details: 3 days
Excerpt: Effect of Test Compound 3 on Cytotoxicity of HMG-CoA Reductase Inhibitor (1)

[2] = test system: Human normal skeletal muscle cells; assay: Effect of Test compound 3 on cytotoxicity of HMG-CoA reductase inhibitor (2), pretreatment 1 day; assay type: cell-based
Experimental: Effect of Test Compound 3 on Cytotoxicity of HMG-CoA Reductase Inhibitor (2)
The drug in Treatment 1 was added and after 1 day, the medium was completely removed.

[3] = test system: Human normal skeletal muscle cells; details: for The number of the live cells (% of Group 1): 3 days
[4] = test system: geranylgeraniol (GGOH) content in soleus muscle; assay: Increasing effect on geranylgeraniol (GGOH) content in soleus muscle; assay type: in vivo; details: male SD rat, Mean ± SE (N = 4)
Experimental: Increasing Effect on Geranylgeraniol (GGOH) Content in Soleus Muscle
To 6 week-old male SD rat (4 per group) was orally administered forcedly by means of a stomach sonde a vehicle or Test compounds 1 or 2 at a dose of 10 mL/kg once a day for 14 days so as to be in an amount of 40 or 200 mg/kg. In the next morning of the 14th administration, the rat was killed under ether anesthesia. Immediately, the soleus muscle was collected and frozen on a dry ice, and then kept at −80° C. Later, to the muscle homogenate was added phosphatase for dephosphorylation, and then the concentration of geranylgeraniol (sum total of geranylgeranyl pyrophosphate and geranylgeraniol) in the muscle was determined with LC/MS/MS (Table 1).

[5] = molecular target: T1, squalene synthase (Homo sapiens, UniProt P37268); details: described in Test 1 of JP-A No. 9-136880; cited from earlier work
T1 sequence (P37268 1-417): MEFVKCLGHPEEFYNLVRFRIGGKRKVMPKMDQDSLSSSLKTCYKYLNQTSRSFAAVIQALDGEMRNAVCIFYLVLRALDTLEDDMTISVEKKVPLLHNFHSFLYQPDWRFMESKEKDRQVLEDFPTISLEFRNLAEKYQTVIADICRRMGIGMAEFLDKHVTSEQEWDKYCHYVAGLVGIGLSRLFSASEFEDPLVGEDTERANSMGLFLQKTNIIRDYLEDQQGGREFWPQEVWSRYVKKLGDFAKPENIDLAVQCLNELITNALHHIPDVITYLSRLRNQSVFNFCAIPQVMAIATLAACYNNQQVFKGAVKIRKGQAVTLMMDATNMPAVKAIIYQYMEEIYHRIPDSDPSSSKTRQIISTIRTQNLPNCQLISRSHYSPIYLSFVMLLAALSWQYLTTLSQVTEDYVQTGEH

[6] = single drug 10 μM, other treatment vehicle, Mean ± SE (N = 3)
[7] = 40 mg/kg oral once a day for 14 days
[8] = 200 mg/kg oral once a day for 14 days

SMILES: CC(C)c1c(C(=O)Nc2ccccc2)c(-c2ccccc2)c(-c2ccc(F)cc2)n1CC[C@@H](O)C[C@@H](O)CC(=O)O [Atorvastatin, atorvastatin, reference compound]
- The number of the live cells (% of Group 1) ([1]; Atorvastatin 100 μM alone (Treatment 1 vehicle)): 34 ± 0.6 % of Group 1
- The number of the live cells (% of Group 1) ([2]; vehicle 1 day, then Atorvastatin 10 μM 3 days): 57 ± 1.1 % of Group 1
- The number of the live cells (% of Group 1) ([2]; vehicle 1 day, then Atorvastatin 100 μM 3 days): 35 ± 1.9 % of Group 1
- The number of the live cells (% of Group 1) [3, 6]: 52.0 ± 0.9 % of Group 1

SMILES: CC(C)=CCC/C(C)=C/CC/C(C)=C/CC/C(C)=C/COP(=O)(O)OP(=O)(O)O [GGPP, geranylgeranyl pyrophosphate]
- The number of the live cells (% of Group 1) ([3]; GGPP 10 μM added together with Atorvastatin 10 μM): 67.8 ± 1.3$ % of Group 1
- The number of the live cells (% of Group 1) ([3]; GGPP 10 μM added together with Simvastatin 10 μM): 72.3 ± 1.6 % of Group 1
- The number of the live cells (% of Group 1) [3, 6]: 93.5 ± 0.8 % of Group 1
- activity reducing cytotoxicity in skeletal muscle cells (in words) ([3]; summary of Table 2): had an activity reducing cytotoxicity in skeletal muscle cells

SMILES: CCC(C)(C)C(=O)O[C@H]1C[C@@H](C)C=C2C=C[C@H](C)[C@H](CC[C@@H]3C[C@@H](O)CC(=O)O3)[C@H]21 [Simvastatin, simvastatin]
- The number of the live cells (% of Group 1) [3, 6]: 46.2 ± 1.5 % of Group 1

SMILES: COc1cccc([C@H]2O[C@H](CC(=O)N3CCC(CC(=O)O)CC3)C(=O)N(CC(C)(C)COC(C)=O)c3ccc(Cl)cc32)c1OC [Test compound 1, N-[[(3R,5S)-1-(3-acetoxy-2,2-dimethylpropyl)-7-chloro-5-(2,3-dimethoxyphenyl)-2-oxo-1,2,3,5-tetrahydro-4,1-benzoxazepin-3-yl]acetyl]piperidine-4-acetic acid]
- GGOH content in the soleus muscle [4, 7]: 0.224 ± 0.017 μg/g soleus muscle
- GGOH content in the soleus muscle [4, 8]: 0.255 ± 0.027 μg/g soleus muscle

SMILES: COc1cccc([C@H]2O[C@H](CC(=O)Nc3cccc(CCC(=O)O)c3)C(=O)N(CC(C)(C)CO)c3ccc(Cl)cc32)c1OC [Test compound 2, 3-[3-[[[(3R,5S)-7-chloro-5-(2,3-dimethoxyphenyl)-1-(3-hydroxy-2,2-dimethylpropyl)-2-oxo-1,2,3,5-tetrahydro-4,1-benzoxazepin-3-yl]acetyl]amino]phenyl]propionic acid]
- GGOH content in the soleus muscle [4, 7]: 0.225 ± 0.019 μg/g soleus muscle
- GGOH content in the soleus muscle [4, 8]: 0.255 ± 0.006 μg/g soleus muscle
- inhibitory activity against squalene synthase [5]: has inhibitory activity against squalene synthase

SMILES: COc1cccc([C@H]2O[C@H](CC(=O)N3CCC(CC(=O)O)CC3)C(=O)N(CC(C)(C)CO)c3ccc(Cl)cc32)c1OC [Test compound 3, N-[[(3R,5S)-7-chloro-5-(2,3-dimethoxyphenyl)-1-(3-hydroxy-2,2-dimethylpropyl)-2-oxo-1,2,3,5-tetrahydro-4,1-benzoxazepin-3-yl]acetyl]piperidine-4-acetic acid]
- The number of the live cells (% of Group 1) ([1]; Test compound 3 10 μM added at the same time as Atorvastatin 100 μM): 42 ± 0.5 % of Group 1
- The number of the live cells (% of Group 1) ([1]; Test compound 3 10 μM alone (Treatment 2 vehicle), Mean ± SE (N = 3)): 96 ± 1.2 % of Group 1
- The number of the live cells (% of Group 1) ([2]; Test compound 3 10 μM for 1 day, medium removed, then Atorvastatin 10 μM 3 days): 76 ± 1.8 % of Group 1
- The number of the live cells (% of Group 1) ([2]; Test compound 3 10 μM for 1 day, medium removed, then Atorvastatin 100 μM 3 days): 45 ± 0.2 % of Group 1
- The number of the live cells (% of Group 1) ([2]; Test compound 3 10 μM for 1 day, medium removed, then vehicle 3 days, Mean ± SE (N = 3)): 98 ± 2.3 % of Group 1
- inhibitory activity against squalene synthase [5]: has inhibitory activity against squalene synthase
